We go through eleven compounds from paper PMC11510177, “New Phytol Derivatives with Increased Cosmeceutical Potential” (Molecules, 2024).

Like-named read-outs stand apart in the source and are kept apart here.

Assay [1] in a line: DPPH radical scavenging assay. The following applies: 100 µM. As to the method:
Antioxidant activity was assayed by the 1,1-diphenyl-2-picryl-hydrazyl (DPPH) radical scavenging assay. Serial dilutions of studied extracts or reference compound (Trolox) were carried out in 96-well microplates, with concentrations ranging between 0.100 μM and 100 μM in methanol. DPPH dissolved in methanol was added to the microwells, yielding a final concentration of 45 µg/mL, and the absorbance at 515 nm was measured after 30 min in the dark. In each assay, a control was prepared in which the same amount of solvent substituted the sample or standard. Percentage of antioxidant activity (% AA) was calculated as %AA = [(Abscontrol − Abssample)/Abscontrol] × 100 (1) where Abscontrol is the absorbance of the control and Abssample is the absorbance of the alga extract or standard. All assays were carried out in triplicate and the results expressed as IC50, i.e., as the concentration yielding 50% scavenging of DPPH, calculated by interpolation from the % AA vs. concentration curve.

The next assay relates to elastase. As to the kind of experiment: Elastase inhibition assay. To be noted: 100 µM. It counts as biochemical. As to the method: The extracts were assayed by the method described by Ndlovu et al. with some modifications. In brief, 25 μL of elastase enzyme solution (0.3 U/mL), 50 μL of ten serial concentrations of the extracts or fractions (0.100–100 μM dissolved in 100 mM HEPES buffer, pH 7.5 containing no more than 2.5 % DMSO), and 125 μL HEPES buffer were mixed in a 96-well plate and incubated at room temperature for 20 min. Then, 50 μL of N-methoxysuccinyl-Ala-Ala-Pro-Val-p-nitroanilide (1 mM) was added. The enzyme activity was measured at 405 nm in the moment of substrate addition and after 40 min of incubation at 25 °C. N-Methoxysuccinyl-Ala-Ala-Pro-chloromethyl ketone at 0.100–100 μM was used as a positive control. The experiments were carried out in triplicate. For each concentration, enzyme activity was calculated as a percentage of the velocities compared to that of the assay, using buffer without any inhibitor. The IC50 value, which was the sample concentration that inhibited 50% of the enzyme activity, was determined interpolation from the % elastase inhibition vs. concentration curve.

Another assay has as its system hyaluronidase. In words: Hyaluronidase inhibition assay. It counts as biochemical. The following applies: 100 µM; for increase in hyaluronidase inhibition over phytol: relative to phytol. The procedure:
The assay was conducted following the Sigma protocol with minor adjustments. In a microplate, 25 µL of 5 U/mL of hyaluronidase prepared in 20 mM sodium phosphate buffer (pH 7.0) with 77 mM sodium chloride and 0.01% BSA, was pre-incubated with 50 µL of the sample in concentrations ranging from between 0.100 μM and 100 μM for 10 min at 37 °C. Subsequently, the assay was initiated by adding 25 µL hyaluronic acid (0.015 % in 300 mM sodium phosphate, pH 5.35) to the incubation mixture and incubated for an additional 30 min at 37 °C. Undigested hyaluronic acid was precipitated with 200 µL acid albumin solution composed of 0.1 % bovine serum albumin in 24 mM sodium acetate and 79 mM acetic acid (pH 3.75). After standing at room temperature for 10 min, the absorbance of the reaction mixture was measured at 600 nm. The absorbance in the absence of enzymes (blank) served as the reference value for maximum absorbance. Sodium aurothiomalate was used as a control inhibitor. Enzyme activity was verified by a control experiment conducted simultaneously, in which the enzyme was pre-incubated with buffer instead, followed by the assay procedures described above. The inhibitory activity of the test compound was determined as follows:%Inhibition = [1 − (Absblank − Abssample)/(Absblank − Abscontrol)] × 100(4) where Absblank is the absorbance of the reaction without enzyme, Abssample is the absorbance of the extract or standard compound sodium aurothiomalate, and Abscontrol is the absorbance of the enzyme without inhibitor. The IC50 value, which was the sample concentration that inhibited 50% of the enzyme activity, was determined by interpolation from the % hyaluronidase inhibition vs. concentration curve.

The target of a further assay is T1, tyrosinase (Agaricus bisporus, UniProt C7FF04).
T1 construct: purchased Sigma-Aldrich
In words: Tyrosinase inhibition assay. It counts as biochemical. The procedure: The extracts were assayed by adapting the tyrosinase inhibition method described by Shimizu et al. and modified by Manosroi et al.. […] The experiments were carried out in triplicate. For each concentration, enzyme activity was calculated as a percentage of the velocities compared to that of the assay using buffer without any inhibitor.

The nature of assay [2]: ABTS radical scavenging assay. To be noted: 100 µM. The procedure: The method of Re et al. was adopted to perform the ABTS radical scavenging assay. The stock solutions included a 7 mM ABTS solution (2,2′-azinobis-(3 ethylbenzothiazoline 6 sulfonic acid)) and a 2.4 mM potassium persulfate solution. The working solution was prepared by mixing the two stock solutions in equal quantities and allowing for them to react for 12–16 h at room temperature in the dark. The solution was then diluted by mixing 1 mL ABTS solution with the amount of methanol necessary to obtain an absorbance of 0.7 at 734 nm. Serial dilutions of studied extracts or reference compound (Trolox) were carried out in 96-well microplates, with concentrations ranging between 0.100 μM and 100 μM in methanol. ABTS solution was then added to the microwells, and after 8 min of incubation, the absorbance was recorded at […]. In each assay, a negative control was prepared in which the same amount of solvent substituted the sample. The percentage of antioxidant activity (% AA) was calculated as %AA = [(Abscontrol − Abssample)/Abscontrol] × 100 (2) where Abscontrol is the absorbance of ABTS radical + methanol; Abssample is the absorbance of ABTS radical + sample/standard.
All assays were carried out in triplicate and results expressed as IC50, i.e., as the concentration yielding 50% scavenging of ABTS, calculated by interpolation from the % AA vs. concentration curve.

Another assay relates to collagenase. As to the kind of experiment: Collagenase inhibition assay. Format: biochemical. The following applies: 100 µM; for fold increase in collagenase inhibition over phytol: compared to phytol. As to the method: An adaptation of the method of Mandl et al. was used to determine anti-collagenase activity. The following was added to 2 mL test tubes: 25 μL of collagenase solution (0.8 U/mL); 25 μL TES buffer (50 mM) with 0.36 mM calcium chloride, pH 7.4; and 50 μL of test sample or the reference compound EDTA (with concentrations ranging between 0.100 and 100 μM). The tubes were incubated in a water bath at 37 °C for 20 min. Thereafter, 50 μL FALGPA (1 mM) solution was added to the tubes and further incubated for 60 min at 37 °C. To all tubes, 200 μL of a solution containing equal volumes of a 1.6 mg/mL tin chloride (II) solution in 200 mM citrate buffer, pH 5, and 50 mg/mL ninhydrin solution in DMSO were added. All tubes were placed in a water bath (100 °C) for 5 min and left to cool to room temperature before adding 200 μL of 50% isopropanol to each tube. Contents in the tubes were then transferred to respective wells in 96-well plates. Absorbance was detected at 550 nm. EDTA was used as a control inhibitor. Percentage of collagenase inhibition was calculated as % Collagenase inhibition = [(Abscontrol − Abssample)]/Abscontrol] × 100 (5) where Abscontrol is the absorbance of buffer + collagenase; Abseample is the absorbance of buffer + collagenase + sample/standard.
All assays were carried out in triplicate and results expressed as IC50, i.e., as the concentration yielding 50% of collagenase inhibition, calculated by interpolation from the % collagenase inhibition vs. concentration curve.

Where [3] appears, read: read-out: IC50 against tyrosinase.

T1 sequence (C7FF04 1-392 limits assumed): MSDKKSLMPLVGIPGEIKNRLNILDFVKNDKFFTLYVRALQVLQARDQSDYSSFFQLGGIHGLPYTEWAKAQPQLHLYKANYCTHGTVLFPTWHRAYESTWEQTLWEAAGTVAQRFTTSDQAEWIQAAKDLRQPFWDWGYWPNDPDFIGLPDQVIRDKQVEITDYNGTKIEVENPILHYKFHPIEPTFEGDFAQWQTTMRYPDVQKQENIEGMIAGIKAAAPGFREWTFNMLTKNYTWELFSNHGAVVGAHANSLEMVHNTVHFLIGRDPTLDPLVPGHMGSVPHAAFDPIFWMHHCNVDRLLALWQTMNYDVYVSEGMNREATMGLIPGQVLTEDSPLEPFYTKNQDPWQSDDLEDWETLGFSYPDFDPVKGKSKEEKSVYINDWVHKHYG

For the compound `C/C(=C\COC(=O)c1ccccc1)CCC[C@@H](C)CCC[C@@H](C)CCCC(C)C` (stereo in doubt) [Compound 1a, Phytyl benzoate], in assay [1], the “Percentage of DPPH scavenging” value stood at 4.75%. Further, the elastase inhibition in the assay with elastase is 43.28%. In addition, in the assay on hyaluronidase, the hyaluronidase inhibition was found to be 37.32% and the “increase in hyaluronidase inhibition over phytol” value was 15–20%. In addition, at tyrosinase (setting [3]), the IC50 was found to be 34.73 ± 0.1 µM.

On to `C/C(=C\COC(=O)/C=C/c1ccccc1)CCC[C@@H](C)CCC[C@@H](C)CCCC(C)C` (stereo in doubt) [Compound 1f, Phytyl cinnamoate], for which, in assay [1], the “Percentage of DPPH scavenging” value was “about 50%”. Moreover, in assay [2], the “Percentage of ABTS scavenging” value was “about 50%” and the “increase in ABTS antioxidant activity compared to phytol (1)” value (“increase in ABTS antioxidant activity” for short) was found to be 30%. Besides, the IC50 at tyrosinase (setting [3]) is 95.68 ± 0.94 µM.

In the assay with elastase, `CC(=CCO)CCCC(C)CCCC(C)CCCC(C)C` (stereo not shown) [Compound 1, 3,7,11,15-tetramethylhexadec-2-en-1-ol, reference compound] had an elastase inhibition of 6.4%. Besides, the collagenase inhibition in the assay on collagenase was determined as 31.89%. The IC50 against tyrosinase (IC50 against tyrosinase) was determined as 77.5 ± 0.8 µM.

`COc1ccccc1C(=O)OC/C=C(\C)CCC[C@H](C)CCC[C@H](C)CCCC(C)C` [Compound 1b, Phytyl 2-methoxybenzoate]: the elastase inhibition result in the assay on elastase is “low”. The compound further had a hyaluronidase inhibition in the assay on hyaluronidase of 34.74%. Besides, the IC50 on tyrosinase (setting [3]) is 59.62 ± 0.51 µM.

`COc1cccc(C(=O)OC/C=C(\C)CCC[C@H](C)CCC[C@H](C)CCCC(C)C)c1` [Compound 1c, Phytyl 3-methoxybenzoate]: in the assay on elastase, the elastase inhibition result was “low”. In addition, the “fold increase in collagenase inhibition over phytol” value in the assay on collagenase was determined as 1.42 fold. Also, in the assay with hyaluronidase, the hyaluronidase inhibition is listed as 40.1% and the “increase in hyaluronidase inhibition over phytol” value is 28%. Besides, at tyrosinase (setting [3]), the IC50 stood at 79 ± 0.87 µM.

`COc1ccc(C(=O)OC/C=C(\C)CCC[C@H](C)CCC[C@H](C)CCCC(C)C)cc1` [Compound 1d, Phytyl 4-methoxybenzoate]: in assay [2], the “Percentage of ABTS scavenging” value is “about 50%” and the “increase in ABTS antioxidant activity” value turned out to be 30%. Besides, in the assay with collagenase, the collagenase inhibition was found to be 49.67% and the “fold increase in collagenase inhibition over phytol” value came out at 1.56 fold. Also, the hyaluronidase inhibition with hyaluronidase worked out at 22.54%. For the same compound, on tyrosinase (setting [3]), the IC50 came out at 27.9 µM.

As for `C/C(=C\COC(=O)c1ccc(Cl)cc1)CCC[C@H](C)CCC[C@H](C)CCCC(C)C` [Compound 1e, Phytyl 4-chlorobenzoate], in assay [1], the “Percentage of DPPH scavenging” value was determined as 11.12%. Moreover, in assay [2], the “increase in ABTS antioxidant activity” value is 30%. Besides, the elastase inhibition in the assay with elastase turned out to be 27.78%. In the assay on collagenase, the “fold increase in collagenase inhibition over phytol” value is given as 1.38 fold. In the assay on hyaluronidase, this compound had a hyaluronidase inhibition of 14.66%. For the same compound, the IC50 on tyrosinase (setting [3]) is over 100 µM.

As to `C/C(=C\COC(=O)C=Cc1ccc([N+](=O)[O-])cc1)CCC[C@H](C)CCC[C@H](C)CCCC(C)C` [Compound 1g, Phytyl 4-nitrocinnamoate], the “Percentage of DPPH scavenging” value in assay [1] came to 37.46%. Further, in assay [2], the “Percentage of ABTS scavenging” value is on record as 28.74%. Further, in the assay on collagenase, the collagenase inhibition amounted to 41.02% and the “fold increase in collagenase inhibition over phytol” value is listed as 1.28 fold. In addition, in the assay with hyaluronidase, the hyaluronidase inhibition was found to be 23.06%. Moreover, the IC50 at tyrosinase (setting [3]) stood at 64.1 ± 0.67 µM.

In the assay on elastase, `C/C(=C\COC(=O)c1ccco1)CCC[C@H](C)CCC[C@H](C)CCCC(C)C` [Compound 1h, Phytyl 2-furoate] registered an elastase inhibition of 28.3%. Besides, the collagenase inhibition in the assay on collagenase is on record as 22.37%. In addition, in the assay with hyaluronidase, the hyaluronidase inhibition is recorded as 36.02% and the “increase in hyaluronidase inhibition over phytol” value was 15–20%. Besides, on tyrosinase (setting [3]), the IC50 was over 100 µM.

As for `C/C(=C\COC(=O)c1cccs1)CCC[C@H](C)CCC[C@H](C)CCCC(C)C` [Compound 1i, Phytyl 2-thiophenecarbonoate], the “Percentage of ABTS scavenging” value in assay [2] was 40.58%. In the assay on elastase, this compound displayed an elastase inhibition of 18.19%. Moreover, in the assay on collagenase, the collagenase inhibition is recorded as 41.68% and the “fold increase in collagenase inhibition over phytol” value turned out to be 1.28 fold. Moreover, at tyrosinase (setting [3]), the concentration for half-maximal inhibition (IC50) was over 100 µM.

On to `Cc1c(C)c2c(c(C)c1O)CCC(C)(C(=O)O)O2` (stereo not shown) [Trolox, 6-hydroxy-2,5,7,8-tetramethylchroman-2-carboxylic acid, reference compound], for which the “Percentage of DPPH scavenging” value in assay [1] is reported as 97.54%.
